Values after ≈ are worked out from the molar mass of the structure shown.
Assays:
KM20L2 = test: Cancer cell growth inhibition, human cancer cell line panel; assay type: cell-based; settings: KM-20L2, KM20L2, Colon-adenocarcinoma, read-out: Inhibitory Activity (GI50)
[1] = system: Bacillus subtilis (clinical isolate); test: Broth microdilution susceptibility assay; assay type: cell-based; settings: read-out: Minimum Inhibitory Concentration
Text: (§1) Compounds were screened against bacteria and fungi according to established broth microdilution susceptibility assays, pursuant to the National Committee for Clinical Laboratory Standards, Methods for Dilution Antimicrobial Susceptibility Tests for Bacteria that Grow Aerobically, Approved Standard M7-A4, Wayne, Pa.: NCCLS, 1997, and the National Conmnittee for Clinical Laboratory Standards, Reference Method for Broth Dilution Antifungal Susceptibility Testing of Yeasts, Approved Standard M27-A, Wayne, Pa.: NCCLS, 1997. The minimum inhibitory concentration was defined as the lowest concentration of compound that inhibited all visible growth of the test organism (optically clear). Assays were repeated on separate days.

[2] = system: Group A Streptococcus (clinical isolate); test: Broth microdilution susceptibility assay; assay type: cell-based; settings: read-out: Minimum Inhibitory Concentration
Text: as §1

[3] = system: Streptococcus pneumoniae (ATCC 6303); test: Broth microdilution susceptibility assay; assay type: cell-based; settings: ATCC6303, read-out: Minimum Inhibitory Concentration
Text: as §1

[4] = system: Micrococcus luteus (Presque Isle 456); test: Broth microdilution susceptibility assay; assay type: cell-based; settings: read-out: Minimum Inhibitory Concentration
Text: as §1

[5] = system: Methicillin-resistant S. aureus (clinical isolate); test: Broth microdilution susceptibility assay; assay type: cell-based; settings: Staphylococcus aureus, read-out: Minimum Inhibitory Concentration
Text: as §1

[6] = system: Cryptococcus neoformans (ATCC 90112); test: Broth microdilution susceptibility assay; assay type: cell-based; settings: ATCC90112, read-out: Minimum Inhibitory Concentration
Text: as §1

[7] = system: Staphylococcus aureus (ATCC 29213); test: Broth microdilution susceptibility assay; assay type: cell-based; settings: ATCC29213, read-out: Minimum Inhibitory Concentration
Text: as §1

[8] = system: Neisseria gonorrhoeae (ATCC 49226); test: Broth microdilution susceptibility assay; assay type: cell-based; settings: ATCC49226, read-out: Minimum Inhibitory Concentration
Text: as §1

[9] = system: Enterococcus faecalis (ATCC 29212); test: Broth microdilution susceptibility assay; assay type: cell-based; settings: ATCC29212, read-out: Minimum Inhibitory Concentration
Text: as §1

[10] = system: Stenotrophomonas maltophilia (ATCC 13637); test: Broth microdilution susceptibility assay; assay type: cell-based; settings: ATCC13637, read-out: Minimum Inhibitory Concentration
Text: as §1

[11] = system: Vancomycin-resistant E. faecalis (clinical isolate); test: Broth microdilution susceptibility assay; assay type: cell-based; settings: Enterococcus faecalis, read-out: Minimum Inhibitory Concentration
Text: as §1

[12] = system: Escherichia coli (ATCC 25922); test: Broth microdilution susceptibility assay; assay type: cell-based; settings: ATCC25922, read-out: Minimum Inhibitory Concentration
Text: as §1

[13] = system: Candida albicans (ATCC 90028); test: Broth microdilution susceptibility assay; assay type: cell-based; settings: ATCC90028, read-out: Minimum Inhibitory Concentration
Text: as §1

[14] = system: Penicillin-resistant S. pneumoniae (clinical isolate); test: Broth microdilution susceptibility assay; assay type: cell-based; settings: Streptococcus pneumoniae, read-out: Minimum Inhibitory Concentration
Text: as §1

[15] = system: Invasive S. pneumoniae (clinical isolate); test: Broth microdilution susceptibility assay; assay type: cell-based; settings: Streptococcus pneumoniae, read-out: Minimum Inhibitory Concentration
Text: as §1

[16] = system: Enterobacter cloacae (ATCC 13047); test: Broth microdilution susceptibility assay; assay type: cell-based; settings: ATCC13047, read-out: Minimum Inhibitory Concentration
Text: as §1

NCI-H460 = test: Cancer cell growth inhibition, human cancer cell line panel; assay type: cell-based; settings: NCI-H460, Lung-NSC, read-out: Inhibitory Activity (GI50)
BXPC-3 = test: as above; assay type: cell-based; settings: BXPC-3, Pancreas-adenocarcinoma, read-out: Inhibitory Activity (GI50)
DU-145 = test: as above; assay type: cell-based; settings: DU-145, Prostate, read-out: Inhibitory Activity (GI50)
MCF-7 = test: as above; assay type: cell-based; settings: MCF7, MCF-7, Breast-adenocarcinoma, read-out: Inhibitory Activity (GI50)
SF-268 = test: as above; assay type: cell-based; settings: SF-268, CNS Glioblastoma, read-out: Inhibitory Activity (GI50)
[17] = system: P388 lymphocytic leukemia; test: Cancer cell growth inhibition, murine P388 lymphocytic leukemia; assay type: cell-based, mouse
Text: Earlier we had observed a number of biologically active blue to black colored fractions arising during P388 lymphocytic leukemia guided separations of a 195 g dichloromethane-soluble portion of the extract obtained from 350 kg (wet wt.) of Cribrochalina sp. The cancer cell growth (P-388) inhibitory dark-colored fractions were finally separated by a successive series of gel permeation and partition chromatographic techniques on Sephadex LH-20. That sequence was followed by high-speed countercurrent distribution using an Ito Coil-Planet centrifuge to afford 88 mg of a dark-blue constituent (P388 ED50 0.3 μg/ml), designated cribrostatin 6 (3). Owing to difficulties in unequivocally deducing the structure of this interesting substance based on spectral evidence, attempts were made at various times over a ten year period to reach a correct solution and/or to produce crystals suitable for X-ray structure determination. We were eventually pleased to find that cribrostatin 6 (3) would crystallize from acetone following long cold storage of the solution. To follow is a summary of the spectral and X-ray crystallographic interpretation that completed a correct structural assignment for cribrostatin 6 (3).
Isolation of Cribrostatin 6 (1). The blue marine sponge Cribrochalina sp. was collected and extracted as known to one of skill in the art, as described in Pettit, G., et al., J. Nat. Prod. […]

bacteria = settings: in words; Pettit et al., J. Nat. Prod. 2000; cited from earlier work
fungi = settings: in words; Pettit et al., J. Nat. Prod. 2000; cited from earlier work

CCOC1=C(C)C(=O)c2ccn3c(C)ncc3c2C1=O [Cribrostatin 6, 9-ethoxy-3,8-dimethyl-imidazo[5,1-a]isoquinoline-7, 10-dione]
GI50 (KM20L2): > 1 µg/mL | MIC [1]: 2 µg/mL (≈ 7.4 µM) | MIC [2]: 16 µg/mL (≈ 59.2 µM) | MIC [3]: 0.5 µg/mL (≈ 1.85 µM) | MIC [4]: 16 µg/mL (≈ 59.2 µM) | MIC [5]: 16 µg/mL (≈ 59.2 µM) | MIC [6]: 2 µg/mL (≈ 7.4 µM) | MIC [7]: 16 µg/mL (≈ 59.2 µM) | MIC [8]: 0.0625 µg/mL (≈ 0.231 µM) | MIC [9]: 32 µg/mL (≈ 118 µM) | MIC [10]: > 64 µg/mL | MIC [11]: 32 µg/mL (≈ 118 µM) | MIC [12]: > 64 µg/mL | MIC [13]: 64 µg/mL (≈ 237 µM) | MIC [14]: 2 µg/mL (≈ 7.4 µM) | MIC [15]: 1 µg/mL (≈ 3.7 µM) | MIC [16]: > 64 µg/mL | GI50 (NCI-H460): > 1 µg/mL | GI50 (BXPC-3): > 1 µg/mL | GI50 (DU-145): 0.38 µg/mL (≈ 1.41 µM) | GI50 (MCF-7): 0.21 µg/mL (≈ 0.777 µM) | GI50 (SF-268): 0.24 µg/mL (≈ 0.888 µM) | GI50 ([17]; P388, Mouse Leukemia, read-out: Inhibitory Activity (GI50)): 0.29 µg/mL (≈ 1.07 µM) | P388 ED50 ([17]; murine P-388 lymphocytic leukemia cell line): 0.3 µg/mL

CC1=C(N)C(=O)c2c(ccnc2C)C1=O [Cribrostatin 1]
antibacterial activity (bacteria): antibacterial | antifungal activity (fungi): not antifungal

C/C=C(/C)C(=O)OCc1nccc2c1C(=O)C(N)=C(C)C2=O [Cribrostatin 3]
antibacterial activity (bacteria): antibacterial | antifungal activity (fungi): not antifungal
